In one assay the target is T1, BRD4 BD2 (Homo sapiens, UniProt O60885).
T1 construct: made in house
Put plainly: AlphaScreen binding assay, BRD4 Bromodomain 2. Put shortly:
(§1)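 Compound dilution series were mixed with His-tagged BRD4 bromodomain and biotinylated tetra-acetylated H4 (1-21) peptide at pH 7.3 (BD1 and peptide at 50 nM, BD2 and peptide at 100 nM). Donor and acceptor beads were then added, and plates were equilibrated at least 1 h before reading. IC50 values were fitted with a four-parameter logistic model.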

The target in a further assay is T2, BRD4 BD1 (Homo sapiens, UniProt O60885).
T2 construct: made in house
The assay is described as follows: AlphaScreen binding assay, BRD4 Bromodomain 1. Put shortly: as §1
(In general: Bead proximity is the source of the signal in Alpha formats.)

In the next assay the test system is MV4-11 cells. The assay is described as follows: Oncology cell growth assay (3-day proliferation, CellTiter-Glo). The assay is classed as cell-based. As to conditions: Homo sapiens, AML cell line MV4-11, 72 hours, compounds grouped by IC50 range, read-out: MV4-11 IC50 (inhibition of proliferation, gIC50). Put shortly: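 MV4-11 AML cells (RPMI 1640, 10% FBS) plated at 3000 cells/well and exposed 72 h to compound at final 10 to 0.0045 μM (3-fold series). Viability read by CellTiter-Glo luminescence; gIC50 from four-parameter logistic fit between DMSO control and no-cell background.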

Where two headings read alike, the source gives them in different places. A value given as a limit tells only on which side of the number the result lay.

Experimental findings from patent US10703764B2, “Benzopiperazine compositions as BET bromodomain inhibitors” (FORMA Therapeutics, Inc., priority 2013, dated 2020) are described below.

As to `CC(=O)N1c2ccc(-c3cnn(C4CS(=O)(=O)C4)c3)cc2N(C(=O)OC2CCC2)C[C@@H]1C` [Example I-98, cyclobutyl (3S)-4-acetyl-7-[1-(1,1-dioxo-1λ^6-thietan-3-yl)-1H-pyrazol-4-yl]-3-methyl-1,2,3,4-tetrahydroquinoxaline-1-carboxylate], the IC50 was in the range of 50 to 500 nM on BRD4 BD2; 100 to 1000 nM at BRD4 BD1; 100 to 500 nM in the assay with MV4-11 cells (MV4-11, 72 h).

Take `CC(=O)N1c2ccc(-c3ccc(C(=O)N4CCNCC4)cc3)cc2N(C(=O)Oc2ccccc2)C[C@@H]1C` [Example I-99, phenyl (S)-4-acetyl-3-methyl-7-(4-(piperazine-1-carbonyl)phenyl)-3,4-dihydroquinoxaline-1(2H)-carboxylate]: the results for the IC50 on BRD4 BD2, on BRD4 BD1 and in the assay with MV4-11 cells were less than 50 nM, less than 100 nM and less than 100 nM, respectively.

As to `CC(=O)N1c2ccc(-c3cnn(C4COC4)c3)cc2N(C(=O)C2(C)CC2)C[C@@H]1C` [Example I-114, (S)-1-(2-methyl-4-(1-methylcyclopropanecarbonyl)-6-(1-(oxetan-3-yl)-1H-pyrazol-4-yl)-3,4-dihydroquinoxalin-1(2H)-yl)ethanone], the IC50 is 50 to 500 nM on BRD4 BD2; greater than 10000 nM on BRD4 BD1; greater than 500 nM in the assay on MV4-11 cells (MV4-11, 72 h).

Take `CC(=O)N1c2ccc(-c3cnn(Cc4cnccn4)c3)cc2N(C(=O)OC(C)C)C[C@@H]1C` [Example I-116, (S)-isopropyl 4-acetyl-3-methyl-7-(1-(pyrazin-2-ylmethyl)-1H-pyrazol-4-yl)-3,4-dihydroquinoxaline-1(2H)-carboxylate]: the IC50 lay in the range of 50 to 500 nM at BRD4 BD2; 100 to 1000 nM on BRD4 BD1; 100 to 500 nM in the assay with MV4-11 cells (MV4-11, 72 h).

For `CC(=O)N1c2ccc(-c3cnn(Cc4ccncc4)c3)cc2N(C(=O)OC(C)C)C[C@@H]1C` [Example I-117, (S)-isopropyl 4-acetyl-3-methyl-7-(1-(pyridin-4-ylmethyl)-1H-pyrazol-4-yl)-3,4-dihydroquinoxaline-1(2H)-carboxylate], the IC50 on BRD4 BD2 lay within 50 to 500 nM; at BRD4 BD1 it was 100 to 1000 nM; in the assay with MV4-11 cells (MV4-11, 72 h), 100 to 500 nM.

`CC(=O)N1c2ccc(-c3cnn(Cc4cccnc4)c3)cc2N(C(=O)OC(C)C)C[C@@H]1C` [Example I-119, (S)-isopropyl 4-acetyl-3-methyl-7-(1-(pyridin-3-ylmethyl)-1H-pyrazol-4-yl)-3,4-dihydroquinoxaline-1(2H)-carboxylate]: the IC50 was less than 50 nM on BRD4 BD2; 100 to 1000 nM on BRD4 BD1; 100 to 500 nM with MV4-11 cells (MV4-11, 72 h).

As to `CC(=O)N1c2ccc(-c3cnn(Cc4ccccn4)c3)cc2N(C(=O)OC(C)C)C[C@@H]1C` [Example I-120, (S)-isopropyl 4-acetyl-3-methyl-7-(1-(pyridin-2-ylmethyl)-1H-pyrazol-4-yl)-3,4-dihydroquinoxaline-1(2H)-carboxylate], the IC50 on BRD4 BD2 was less than 50 nM; at BRD4 BD1, 100 to 1000 nM; in the assay with MV4-11 cells (MV4-11, 72 h), 100 to 500 nM.

Take `CC(=O)N1c2ccc(-c3cnn(Cc4ccccn4)c3)cc2N(C(=O)C2CC2)C[C@@H]1C` [Example I-121, (S)-1-(4-(cyclopropanecarbonyl)-2-methyl-6-(1-(pyridin-2-ylmethyl)-1H-pyrazol-4-yl)-3,4-dihydroquinoxalin-1(2H)-yl)ethanone]: the IC50 at BRD4 BD2 is less than 50 nM; on BRD4 BD1, 100 to 1000 nM; with MV4-11 cells (MV4-11, 72 h), 100 to 500 nM.

As to `CC(=O)N1c2ccc(-c3cnn(Cc4cccnc4)c3)cc2N(C(=O)C2CC2)C[C@@H]1C` [Example I-122, (S)-1-(4-(cyclopropanecarbonyl)-2-methyl-6-(1-(pyridin-3-ylmethyl)-1H-pyrazol-4-yl)-3,4-dihydroquinoxalin-1(2H)-yl)ethan-1-one], the IC50 is less than 50 nM at BRD4 BD2; 100 to 1000 nM on BRD4 BD1; 100 to 500 nM in the assay with MV4-11 cells (MV4-11, 72 h).

For `CC(=O)N1c2ccc(-c3cnn(Cc4cnccn4)c3)cc2N(C(=O)C2CC2)C[C@@H]1C` [Example I-123, (S)-1-(4-(cyclopropanecarbonyl)-2-methyl-6-(1-(pyrazin-2-ylmethyl)-1H-pyrazol-4-yl)-3,4-dihydroquinoxalin-1(2H)-yl)ethanone], the IC50 was 50 to 500 nM at BRD4 BD2; 1000 to 10000 nM on BRD4 BD1; greater than 500 nM in the assay on MV4-11 cells (MV4-11, 72 h).

In the case of `CC(=O)N1c2ccc(-c3cnn(CC4(C)COC4)c3)cc2N(C(=O)C2CC2)C[C@@H]1C` [Example I-124, (S)-1-(4-(cyclopropanecarbonyl)-2-methyl-6-(1-((3-methyloxetan-3-yl)methyl)-1H-pyrazol-4-yl)-3,4-dihydroquinoxalin-1(2H)-yl)ethanone], the IC50 was less than 50 nM on BRD4 BD2; 1000 to 10000 nM at BRD4 BD1; 100 to 500 nM in the assay with MV4-11 cells (MV4-11, 72 h).

With `CC(=O)N1c2ccc(-c3cnn(Cc4ncccn4)c3)cc2N(C(=O)C2CC2)C[C@@H]1C` [Example I-126, (S)-1-(4-(cyclopropanecarbonyl)-2-methyl-6-(1-(pyrimidin-2-ylmethyl)-1H-pyrazol-4-yl)-3,4-dihydroquinoxalin-1(2H)-yl)ethanone], the IC50 on BRD4 BD2 was less than 50 nM; at BRD4 BD1, 1000 to 10000 nM; in the assay on MV4-11 cells (MV4-11, 72 h), greater than 500 nM.

`CC(=O)N1c2ccc(-c3cnn(Cc4c[nH]cn4)c3)cc2N(C(=O)C2CC2)C[C@@H]1C` [Example I-127, (S)-1-(6-(1-((1H-imidazol-4-yl)methyl)-1H-pyrazol-4-yl)-4-(cyclopropanecarbonyl)-2-methyl-3,4-dihydroquinoxalin-1(2H)-yl)ethanone]: the IC50 on BRD4 BD2 was less than 50 nM; on BRD4 BD1, 100 to 1000 nM; with MV4-11 cells (MV4-11, 72 h), greater than 500 nM.

Regarding `CC(=O)N1c2ccc(-c3cnn(Cc4cncnc4)c3)cc2N(C(=O)C2CC2)C[C@@H]1C` [Example I-128, (S)-1-(4-(cyclopropanecarbonyl)-2-methyl-6-(1-(pyrimidin-5-ylmethyl)-1H-pyrazol-4-yl)-3,4-dihydroquinoxalin-1(2H)-yl)ethanone], the IC50 at BRD4 BD2 is less than 50 nM; on BRD4 BD1, 1000 to 10000 nM; in the assay with MV4-11 cells (MV4-11, 72 h), 100 to 500 nM.

As for `CC(=O)N1c2ccc(-c3cnn(CCN(C)C)c3)cc2N(C(=O)OC(C)C)C[C@@H]1C` [Example I-129, (S)-isopropyl 4-acetyl-7-(1-(2-(dimethylamino)ethyl)-1H-pyrazol-4-yl)-3-methyl-3,4-dihydroquinoxaline-1(2H)-carboxylate], the IC50 at BRD4 BD2 was in the range of 50 to 500 nM; at BRD4 BD1 it was 1000 to 10000 nM; with MV4-11 cells (MV4-11, 72 h) it was 100 to 500 nM.

Turning to `CC(=O)N1c2ccc(-c3cnn(CC(=O)O)c3)cc2N(C(=O)OC(C)C)C[C@@H]1C` [Example I-130, (S)-2-(4-(1-acetyl-4-(isopropoxycarbonyl)-2-methyl-1,2,3,4-tetrahydroquinoxalin-6-yl)-1H-pyrazol-1-yl)acetic acid], the IC50 was 50 to 500 nM on BRD4 BD2; 100 to 1000 nM at BRD4 BD1; greater than 500 nM with MV4-11 cells (MV4-11, 72 h).

Take `CC(=O)N1c2ccc(-c3cnn(Cc4ccno4)c3)cc2N(C(=O)OC(C)C)C[C@@H]1C` [Example I-131, (S)-isopropyl 4-acetyl-7-(1-(isoxazol-5-ylmethyl)-1H-pyrazol-4-yl)-3-methyl-3,4-dihydroquinoxaline-1(2H)-carboxylate]: the IC50 on BRD4 BD2 was 50 to 500 nM; at BRD4 BD1 it was 100 to 1000 nM; in the assay on MV4-11 cells (MV4-11, 72 h), 100 to 500 nM.

In the case of `CC(=O)N1c2ccc(-c3cnn(CC4(F)COC4)c3)cc2N(C(=O)OC(C)C)C[C@@H]1C` [Example I-133, (S)-isopropyl 4-acetyl-7-(1-((3-fluorooxetan-3-yl)methyl)-1H-pyrazol-4-yl)-3-methyl-3,4-dihydroquinoxaline-1(2H)-carboxylate], the IC50 was 50 to 500 nM at BRD4 BD2; 100 to 1000 nM on BRD4 BD1; 100 to 500 nM in the assay with MV4-11 cells (MV4-11, 72 h).

As to `CNC(=O)Cn1cc(-c2ccc3c(c2)N(C(=O)OC(C)C)C[C@H](C)N3C(C)=O)cn1` [Example I-134, (S)-isopropyl 4-acetyl-3-methyl-7-(1-(2-(methylamino)-2-oxoethyl)-1H-pyrazol-4-yl)-3,4-dihydroquinoxaline-1(2H)-carboxylate], the IC50 on BRD4 BD2 was 50 to 500 nM; at BRD4 BD1, 100 to 1000 nM; in the assay with MV4-11 cells (MV4-11, 72 h), greater than 500 nM.

Consider `CC(=O)N1c2ccc(-c3cnn(CC(F)F)c3)cc2N(C(=O)OC(C)C)C[C@@H]1C` [Example I-135, (S)-isopropyl 4-acetyl-7-(1-(2,2-difluoroethyl)-1H-pyrazol-4-yl)-3-methyl-3,4-dihydroquinoxaline-1(2H)-carboxylate], for which the IC50 on BRD4 BD2 was in the range of 50 to 500 nM; on BRD4 BD1, 100 to 1000 nM; in the assay with MV4-11 cells (MV4-11, 72 h), 100 to 500 nM.

Take `CC(=O)N1c2ccc(-c3cnn(CCCO)c3)cc2N(C(=O)OC(C)C)C[C@@H]1C` [Example I-137, (S)-isopropyl 4-acetyl-7-(1-(3-hydroxypropyl)-1H-pyrazol-4-yl)-3-methyl-3,4-dihydroquinoxaline-1(2H)-carboxylate]: the IC50 on BRD4 BD2 fell in the range of 50 to 500 nM; at BRD4 BD1 it was 100 to 1000 nM; with MV4-11 cells (MV4-11, 72 h), 100 to 500 nM.

Turning to `CC(=O)N1c2ccc(-c3cnn(CCn4cncn4)c3)cc2N(C(=O)OC(C)C)C[C@@H]1C` [Example I-139, (S)-isopropyl 7-(1-(2-(1H-1,2,4-triazol-1-yl)ethyl)-1H-pyrazol-4-yl)-4-acetyl-3-methyl-3,4-dihydroquinoxaline-1 (2H)-carboxylate], the IC50 on BRD4 BD2 was less than 50 nM; at BRD4 BD1, 100 to 1000 nM; with MV4-11 cells (MV4-11, 72 h), 100 to 500 nM.

Turning to `CC(=O)N1c2ccc(-c3cnn(CC(C)(C)F)c3)cc2N(C(=O)OC(C)C)C[C@@H]1C` [Example I-140, (S)-isopropyl 4-acetyl-7-(1-(2-fluoro-2-methylpropyl)-1H-pyrazol-4-yl)-3-methyl-3,4-dihydroquinoxaline-1(2H)-carboxylate], the IC50 was in the range of 50 to 500 nM on BRD4 BD2; 100 to 1000 nM on BRD4 BD1; 100 to 500 nM with MV4-11 cells (MV4-11, 72 h).
